Where “and” joins values, the source holds several entries; their conditions need not be identical. Identical values can stand only once. Like-named read-outs stand apart in the source and are kept apart here.
Experiments:
[1] = biological target: T1, Rat EP4 Receptor (Rattus norvegicus, UniProt P43114); parameters: method as in PMID 29636218; conditions: reported within cited reference; cited from earlier work
T1 construct: expressed in transfected cells; host or cells: HEK293T/17

[2] = biological target: T2, hEP4 receptor (Homo sapiens, UniProt P35408); parameters: expressed in transfected cells; host or cells: HEK293T/17; conditions: reported within cited reference; cited from earlier work
T2 sequence (P35408 whole entry): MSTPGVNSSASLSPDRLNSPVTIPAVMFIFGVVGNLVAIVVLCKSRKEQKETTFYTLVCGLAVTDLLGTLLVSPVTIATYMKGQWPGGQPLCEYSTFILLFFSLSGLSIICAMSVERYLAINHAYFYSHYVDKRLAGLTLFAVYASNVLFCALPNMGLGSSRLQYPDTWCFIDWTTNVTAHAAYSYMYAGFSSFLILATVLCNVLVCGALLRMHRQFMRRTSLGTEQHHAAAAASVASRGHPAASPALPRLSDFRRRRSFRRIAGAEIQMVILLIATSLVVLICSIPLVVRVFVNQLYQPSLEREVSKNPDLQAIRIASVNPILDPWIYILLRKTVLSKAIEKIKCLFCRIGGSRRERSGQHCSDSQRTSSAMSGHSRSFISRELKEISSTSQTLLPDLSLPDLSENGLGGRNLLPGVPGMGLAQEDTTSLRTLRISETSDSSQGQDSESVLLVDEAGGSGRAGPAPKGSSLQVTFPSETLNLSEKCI

[3] = biological target: T2, hEP4 receptor; assay: cell-based; type: cell-based; parameters: expressed in transfected cells; host or cells: HEK293T/17
Procedure: (§1) Human and rat EP4 receptors were expressed in HEK293T/17 cells separately by reverse transfection on 96-well plates with optimized amounts of cDNA expression constructs immobilized on the surface. Activation of EP4 receptor in this cell line was measured as an increase in cAMP levels using an ELISA kit (Cayman Chemical, Ann Arbor MI). In short, the transfection plates were seeded with 50,000–80,000 cells/well in reduced serum medium containing 0.5% FBS and incubated overnight at 37 °C with 5% CO2. Before stimulation with test compounds, media was aspirated from the wells and replaced with reduced serum media containing 0.5 mM 3-isobutyl 1-methylxanthine (IBMX). Compound dilution series were prepared in the same IBMX containing media at 2X final concentration and applied to the wells in equal volume. Stimulation media were aspirated from the plates after 30 min incubation with test compounds, and the plates with cells were placed on dry ice and then put into − 80 °C freezer for > 2 h. Cell lysates were prepared on thawed plates by adding 200 μl/well ice-cold ELISA buffer with 0.05% Tween-20 followed by titration. The cell lysates were then transferred to a polypropylene plate and clarified by centrifugation at 1000×g for 15 min at 4 °C. Supernatant was transferred into a pre-coated mouse Anti-Rabbit IgG ELISA plate together with serial dilutions of cAMP for a standard curve in triplicate. cAMP-acetylcholinesterase conjugate (cAMP tracer) was added, followed by cAMP EIA antiserum. Plates were incubated overnight with shaking. After washing 5 times in washing buffer, Ellman’s reagent was added to the well and shake for 90 min under cover before measuring absorbance at 405 nm on a plate reader.

[4] = biological target: T2, hEP4 receptor; assay: Radioligand ([H^3]-PGE2) competition binding, hEP4 membranes of HEK293 cells; parameters: expressed in transfected cells; host or cells: HEK293; conditions: Human EP4 Receptor; displacement of 0.5 nM [H^3]-PGE2, Cheng Prusoff
Procedure: (§2) Radioligand binding experiments were carried out versus the hEP4 and rEP4 receptors. […] We also implemented the rEP4 receptor binding studies. Equilibrium competition binding assays were conducted to determine the inhibition constants (Ki) for ligand interactions with EP4 receptors sourced from membranes (160,000×g) of HEK293 cells overexpressing recombinant hEP4 or rEP4 receptors. […] Assays were performed in 10 mM 2-(N-morpholino) ethanesulphonic acid (MES) buffer containing 1 mM EDTA and 10 mM MnCl2, pH 6.0, during 120 min at room temperature. Ki was calculated using the Cheng Prusoff equation where Ki = IC50/(1 […] L/Kd).

[5] = biological target: T2, hEP4 receptor; parameters: expressed in transfected cells; host or cells: HEK293T/17; conditions: reported within cited reference; cited from earlier work; remark: listed apart in the source
[6] = biological target: T1, Rat EP4 Receptor; assay: EP4 receptor functional activation, cAMP ELISA in transfected HEK293T/17 cells; type: cell-based
Procedure: as §1

[7] = biological target: T3, rEP4 receptor (Rattus norvegicus, UniProt P43114); assay: Radioligand ([H^3]-PGE2) competition binding, rEP4 membranes of HEK293 cells
T3 construct: expressed in transfected cells; host or cells: HEK293
T3 sequence (P43114 whole entry): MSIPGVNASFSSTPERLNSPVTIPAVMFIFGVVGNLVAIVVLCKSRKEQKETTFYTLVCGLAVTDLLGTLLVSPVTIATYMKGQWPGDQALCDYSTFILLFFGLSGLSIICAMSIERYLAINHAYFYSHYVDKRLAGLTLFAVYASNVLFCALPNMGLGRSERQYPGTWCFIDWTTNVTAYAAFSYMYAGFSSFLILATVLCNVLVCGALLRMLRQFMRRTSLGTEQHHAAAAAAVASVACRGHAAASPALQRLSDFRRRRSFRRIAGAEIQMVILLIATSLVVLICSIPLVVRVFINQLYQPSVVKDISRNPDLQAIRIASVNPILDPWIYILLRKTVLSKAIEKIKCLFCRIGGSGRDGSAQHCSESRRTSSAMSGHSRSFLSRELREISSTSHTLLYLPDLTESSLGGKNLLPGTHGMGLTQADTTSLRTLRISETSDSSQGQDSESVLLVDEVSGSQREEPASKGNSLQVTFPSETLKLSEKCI
Procedure: as §2

[8] = Human EP4 Receptor, cAMP response assay, value ± spread (n), read-out: EC50
[9] = Rat EP4 Receptor, displacement of 0.5 nM [H^3]-PGE2, Cheng Prusoff, read-out: Ki

T1 sequence (P43114 whole entry): as above

SMILES | Ki [4] | EC50 [3, 8] | EC50 [6] | Ki [7, 9] | further results
CCCCC(C)(O)C/C=C/[C@H]1[C@H](O)CC(=O)[C@@H]1CCCCCCC(=O)OC (mixture of isomers) [Misoprostol] |  |  |  |  | Ki [1]: 26300 nM; Ki [2]: 4340 nM
CS(=O)(=O)NC(=O)CCC/C=C\C[C@H]1C(=O)C[C@@H](O)[C@@H]1/C=C/[C@@H](O)COc1ccccc1 [Sulprostone] |  |  |  |  | Ki [1]: 43600 nM; Ki [2]: 3310 nM
CCCCC[C@H](O)/C=C/[C@H]1[C@H](O)CC(=O)[C@@H]1CCCCCCC(=O)O [PGE1, Prostaglandin E1] | 0.13 nM |  |  |  | EC50 [3]: 0.42 ± 0.72 nM
CCCCCCOc1c2c(c(OCCCCCC)c3ccccc13)C(=O)N(c1ccc(CC(=O)O)cc1)C2 [CCL17464,19] |  |  |  |  | Ki [5]: > 6310 nM
CCCCC[C@H](O)/C=C/[C@H]1CCC(=O)N1CCCCCCC(=O)O [8-aza-11-deoxy-PGE1] | 1.7 nM | 1.77 ± 0.32 nM | 2.64 ± 0.62 nM |  | 
CCOc1c2c(c(OCC)c3ccccc13)C(=O)N(c1ccc(CC(=O)O)cc1)C2 [CCL17464,2] |  |  |  |  | Ki [5]: 19.9 nM
CCCCC[C@H](O)/C=C/[C@H]1CCC(=O)[C@@H]1CCCCCCC(=O)O [11-deoxy-PGE1] | 0.13 nM | 0.79 ± 0.19 nM | 1.13 ± 0.15 nM | 0.21 nM | 
COCc1cccc(C[C@H](O)/C=C/[C@H]2[C@H](O)CC(=O)[C@@H]2CCSCCCC(=O)O)c1 [Rivenprost (free Acid)] | 0.37 nM | 0.142 nM and 0.14 nM | 1.16 ± 0.29 nM | 0.35 nM | 
CCCCC[C@H](O)/C=C/[C@H]1[C@H](O)CC(=O)[C@@H]1C/C=C\CCCC(=O)O [PGE2, prostaglandin E2] |  |  |  |  | Ki [7]: 0.19 nM
CCCCC[C@H](O)/C=C/[C@H]1CCC(=O)[C@@H]1C/C=C\CCCC(=O)O [11-deoxy-PGE2] | 0.23 nM | 0.66 ± 0.11 nM | 1.32 ± 0.24 nM | 0.42 nM | 
Cc1cc(Cl)ccc1-c1ccc([C@H](O)/C=C/[C@H]2CCC(=O)N2CCCCCCC(=O)O)cc1 [CAY10684] | 0.061 nM | 0.18 ± 0.1 nM | 0.16 ± 0.06 nM | 0.057 nM | 
